Measurements from patent US6468763B1, “Optical detection of transmembrane potential changes” (Caliper Technologies Corp., priority 1999, dated 2002).

Test system: CHO cells
Assay: Voltage dependent quenching of WGA-F1 fluorescence in response to changes in the potassium diffusion potential
Type: cell-based, Chinese hamster
Conditions: excitation 475 nm
Protocol: Crystal violet was purchased from Fischer Scientific. Fluorescein labeled wheat germ agglutinin (WGA-F1) was purchased from Sigma Chemical. Valinomycin was purchased from Sigma Chemical Chinese hamster ovary cells (CHO) were grown in Ham's F12 media (Irvine Scientific) with 10% fetal bovine serum and 1% penicillin/streptomycin. Adherent cells were harvested using phosphate buffered saline with 0.5 mM EDTA (Irvine Scientific). Cells were washed in Hank's buffered saline solution (HBSS) containing 20 mM Hepes at pH 7.2. Cells suspended in HBSS at a concentration of 10^6 cells/ml were stained with 2 μg/ml WGA-F1 and 40 nM crystal violet for 15 minutes at room temperature. The cells were washed with HBSS and suspended in HBSS containing 1 μM sulforhodamine 101 (Sigma Chemical). Sulforhodamine 101 was used as a voltage insensitive volume marker to account for possible dilution artifacts. […] Fluorescence measurements on cell suspensions were made at room temperature using a FluoroMax-2 fluorometer (Spex). […]
The cationic quencher will redistribute from the intracellular side of the plasma membrane to the extracellular side as the cell is depolarized. […] The fluorescein fluorescence in the depolarized cells is decreased by 20% compared to the hyperpolarized cells. No difference is seen in sulforhodamine 101 fluorescence.
Octadecyl rhodamine B (R18) was purchased from Molecular Probes. […] Fluorescence measurements on cell suspensions were made at room temperature using a FluoroMax-2 fluorometer (Spex). […]
The cationic quencher redistributes from the intracellular side of the plasma membrane to the extracellular side as the cell is depolarized. […] The fluorescein fluorescence in the depolarized cells is decreased by 3% and the rhodamine fluorescence is increased by 2% compared to the hyperpolarized cells. The observed changes in fluorescein and R18 fluorescence are consistent with the translocation-dependent changes in fluorescence resonance energy transfer.

[1] = CHO cells stained with 2 μg/ml WGA-F1 and 500 nM R18, high potassium vs high sodium buffer, valinomycin

Q: Which “decrease of fluorescein fluorescence in the depolarized cells compared to the hyperpolarized cells” value [1] does the source give for CCCCCCCCCCCCCCCCCCOC(=O)c1ccccc1-c1c2ccc(=[N+](CC)CC)cc-2oc2cc(N(CC)CC)ccc12.[Cl-] [R18, Octadecyl rhodamine B] here?
A: The value was 3%.

Q: And the “increase of rhodamine fluorescence (sensitized emission) in the depolarized cells compared to the hyperpolarized cells” value [1]?
A: The value was 2%.

Q: With CN(C)c1ccc(C(=C2C=CC(=[N+](C)C)C=C2)c2ccc(N(C)C)cc2)cc1 [crystal violet] as the molecule, how does the “decrease of fluorescein fluorescence in the depolarized cells compared to the hyperpolarized cells” value (CHO cells stained with 2 μg/ml WGA-F1 and 40 nM crystal violet, high potassium buffer (126 mM K+) vs high sodium buffer (6 mM K+), 5 μM valinomycin) read?
A: Its value is 20%.
